Source: ChEMBL document CHEMBL1149090, “Synthesis of a potent transition-state inhibitor of 5'-deoxy-5'-methylthioadenosine phosphorylase” (J Med Chem, 2004)
Active and inactive are the calls of the source. No cut-off for these calls is given here.

Tests used:
[1] = test system: MOLT-4; test: Tested for inhibition of MOLT-4 cells proliferation in the presence of 100 nM methotrexate and 10 uM of the compound; not significant; format: functional, cell-based; details: Homo sapiens
[2] = molecular target: T1, S-methyl-5'-thioadenosine phosphorylase (Homo sapiens, UniProt Q13126); test: Inhibitory concentration against Methylthioadenosine phosphorylase
T1 sequence (Q13126 whole entry): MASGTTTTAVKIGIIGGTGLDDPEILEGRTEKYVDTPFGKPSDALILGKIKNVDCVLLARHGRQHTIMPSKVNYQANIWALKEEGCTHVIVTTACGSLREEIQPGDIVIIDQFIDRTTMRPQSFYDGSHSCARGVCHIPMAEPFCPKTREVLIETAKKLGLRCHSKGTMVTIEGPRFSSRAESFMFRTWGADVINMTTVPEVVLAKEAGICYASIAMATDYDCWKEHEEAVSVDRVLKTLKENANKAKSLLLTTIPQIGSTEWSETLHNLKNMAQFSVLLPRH

[3] = test system: MOLT-4; test: Tested for inhibition of MOLT-4 cells proliferation up to 10 uM; No Inhibition; format: functional, cell-based; details: Homo sapiens
[4] = test system: MOLT-4; test: Tested for inhibition of MOLT-4 cells proliferation in the presence of 3 uM MTA; format: functional, cell-based; details: Homo sapiens

IC50 [2]: 1.2 nM
IC50 [4]: 1000 nM
SMILES: CSC[C@H]1N[C@@H](c2c[nH]c3c(N)ncnc23)[C@H](O)[C@@H]1O
inhibition [1]: inactive
inhibition [3]: inactive
